pEC50: −log10 of the molar value.
How the values were obtained:
[1] = biological target: T1, Free fatty acid receptor 1 (Homo sapiens, UniProt O14842); test: Agonist activity at human FFA1 receptor expressed in CHO cells assessed as increase in intracellular calcium flux at 10 uM by Fluo 4AM dye-based FLIPR assay relative to TAK-875; type: functional, cell-based
[2] = biological target: T1, Free fatty acid receptor 1; test: Agonist activity at human FFA1 receptor expressed in CHO cells assessed as increase in intracellular calcium flux by Fluo 4AM dye-based FLIPR assay; type: functional, cell-based
[3] = tested on: HepG2; test: Apoptotic cytotoxicity in human HepG2 cells assessed as caspase-3/7 activity at 30 uM after 24 hrs by caspase-glo-3/7 assay relative to staurosporine; type: cell-based; conditions: hepg2, 24 h
[4] = Octanol/phosphate buffer distribution coefficient, log D of the compound at 100 uM at pH 7.4 after 24 hrs by shake flask method; type: physicochemical
[5] = Drug level in Sprague-Dawley rat plasma treated with 2-((4-((2'-chloro-[1,1'-biphenyl]-3-yl)methoxy)phenyl)sulfonyl)acetic acid at 10 mg/kg, po measured up to 24 hrs post dose by LC-PDA-MS/MS analysis; type: ADME, organism-based; conditions: in vivo
[6] = AUC (0 to 24 hrs) in fasted Sprague-Dawley rat at 10 mg/kg, po administered as single dose measured up to 24 hrs post dose by LC-PDA-MS/MS analysis; type: ADME, organism-based; parameters: time < 24 hr, dose 10 mg/kg, route oral; conditions: in vivo
[7] = Cmax in fasted Sprague-Dawley rat at 10 mg/kg, po administered as single dose measured up to 24 hrs post dose by LC-PDA-MS/MS analysis; type: ADME, organism-based; parameters: dose 10 mg/kg, route oral; conditions: in vivo
[8] = Half life in fasted Sprague-Dawley rat at 10 mg/kg, po administered as single dose measured up to 24 hrs post dose by LC-PDA-MS/MS analysis; type: ADME, organism-based; conditions: in vivo
[9] = Clearance in fasted Sprague-Dawley rat at 10 mg/kg, po administered as single dose measured up to 24 hrs post dose by LC-PDA-MS/MS analysis; type: ADME, organism-based; conditions: in vivo

T1 sequence (O14842 whole entry): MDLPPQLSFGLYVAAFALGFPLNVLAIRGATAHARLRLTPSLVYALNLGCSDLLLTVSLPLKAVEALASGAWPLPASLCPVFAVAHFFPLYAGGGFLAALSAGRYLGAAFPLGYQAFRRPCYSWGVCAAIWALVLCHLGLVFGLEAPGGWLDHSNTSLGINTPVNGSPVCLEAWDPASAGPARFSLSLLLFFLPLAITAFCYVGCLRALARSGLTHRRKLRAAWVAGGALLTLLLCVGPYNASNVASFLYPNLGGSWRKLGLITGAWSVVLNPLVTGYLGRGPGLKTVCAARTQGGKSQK

Structure (SMILES)	Efficacy [1]	pEC50 [2]	other results
COCCOc1cc(C)c(-c2cccc(COc3ccc(S(=O)(=O)CC(=O)O)cc3)c2)c(C)c1	95%	6.90	–
Cc1noc(C)c1-c1ccc(Cl)c(COc2ccc(S(=O)(=O)CC(=O)O)cc2)c1	84%	6.63	–
COc1cc(C)c(-c2cccc(COc3ccc4c(c3)C(O)CC4CC(=O)O)c2)c(C)c1 (configuration not stated)	83%	6.26	–
CO/N=C(\COc1ccc(COc2ccc(S(=O)(=O)CC(=O)O)cc2)cc1)c1ccccc1	92%	6.75	–
Cc1nc(-c2cccc(Cl)c2)sc1COc1ccc(S(=O)(=O)CC(=O)O)cc1	85%	6.60	–
CCC(C(=O)O)S(=O)(=O)c1ccc(OCc2cccc(-c3c(C)cc(OC)cc3C)c2)cc1 (configuration not stated)	–	< 6.00	–
Cc1cccc(C)c1-c1cccc(COc2ccc(S(=O)(=O)CC(=O)O)cc2)c1	103%	7.18	Activity [3]: -1.5%; logD at 24 h, 100 µM [4]: 2.49
CCCOc1cc(C)c(-c2cccc(COc3ccc(S(=O)(=O)CC(=O)O)cc3)c2)c(C)c1	104%	7.16	Activity [3]: 29.5%; logD at 24 h, 100 µM [4]: 3.58
CCOc1ccc(-c2cccc(COc3ccc(S(=O)(=O)CC(=O)O)cc3)c2)c(Cl)c1	105%	7.29	Activity [3]: 26.9%; logD at 24 h, 100 µM [4]: 3.12
N#Cc1ccccc1-c1cccc(COc2ccc(S(=O)(=O)CC(=O)O)cc2)c1	78%	6.34	–
O=C(O)CS(=O)(=O)c1ccc(OCc2cccc(-c3ccccc3C(F)(F)F)c2)cc1	108%	7.28	Activity [3]: 12.5%; logD at 24 h, 100 µM [4]: 2.95
Cc1cc(OCCCS(C)(=O)=O)cc(C)c1-c1cccc(COc2ccc(S(=O)(=O)CC(=O)O)cc2)c1	83%	6.77	–
Cc1cccc(C)c1-c1cccc(COc2ccc(SCC(=O)O)cc2)c1	95%	6.71	logD at 24 h, 100 µM [4]: 3.82
COc1cc(C)c(-c2cccc(COc3ccc(S(=O)(=O)C(C)(C)C(=O)O)cc3)c2)c(C)c1	–	< 6.00	–
Cc1nc(-c2ccccc2F)sc1COc1ccc(S(=O)(=O)CC(=O)O)cc1	75%	6.26	–
COc1cc(C)c(-c2cccc(COc3ccc4c(c3)SCC4CC(=O)O)c2)c(C)c1 (configuration not stated)	98%	6.91	–
Cc1cc(OCC(C)C)cc(C)c1-c1cccc(COc2ccc(S(=O)(=O)CC(=O)O)cc2)c1	96%	7.02	logD at 24 h, 100 µM [4]: 3.94
O=C(O)CS(=O)(=O)c1cccc(OCc2ccc(-c3ccccc3)cc2)c1	–	< 6.00	–
COc1cc(C)c(-c2cccc(COc3ccc(S(=O)(=O)CC(=O)O)cc3)c2)c(C)c1	106%	7.24	Activity [3]: -2.4%; logD at 24 h, 100 µM [4]: 2.45
Cc1ccccc1-c1cccc(COc2ccc(S(=O)(=O)CC(=O)O)cc2)c1	113%	7.33	Activity [3]: -2.7%; logD at 24 h, 100 µM [4]: 2.35
Cc1ccc(C)n1-c1cccc(COc2ccc(S(=O)(=O)CC(=O)O)cc2)c1	85%	6.89	–
Cc1noc(C)c1-c1cc(COc2ccc(S(=O)(=O)CC(=O)O)cc2)ccc1Cl	81%	6.67	–
COc1cc(C)c(-c2cccc(COc3ccc(S(=O)(=O)C(C)C(=O)O)cc3)c2)c(C)c1 (configuration not stated)	–	< 6.00	–
Cc1noc(C)c1-c1cccc(COc2ccc(S(=O)(=O)CC(=O)O)cc2)c1	82%	6.57	–

Structure (SMILES)	Efficacy [1]	pEC50 [2]	other results
COc1cc(C)c(-c2cccc(COc3ccc(S(=O)(=O)C4(C(=O)O)CC4)cc3)c2)c(C)c1	–	< 6.00	–
Cc1nc(-c2ccccc2)sc1COc1ccc(S(=O)(=O)CC(=O)O)cc1	91%	6.48	–
O=C(O)c1cccc(-c2ccccc2Cl)c1	–	–	Drug metabolism [5]: Metabolite_Detected
COc1ccccc1-c1cccc(COc2ccc(S(=O)(=O)CC(=O)O)cc2)c1	96%	6.71	–
O=C(O)CS(=O)(=O)c1ccc(OCc2cccc(-c3ccccc3)c2)cc1	94%	6.54	Activity [3]: -1.9%; logD at 24 h, 100 µM [4]: 2.13
Cc1cc(OCCCS(C)(=O)=O)cc(C)c1-c1cccc(COc2ccc(CCC(=O)O)cc2)c1	116%	7.81	AUC(0-t) at 24 h [6]: 1.02 µg·h/mL; Cmax [7]: 0.517 µg/mL; half-life [8]: 1.09 h; CL/F [9]: 7.07 L/h/kg; Activity [3]: 46.8%; logD at 24 h, 100 µM [4]: 3.75
Cc1cc(OCC2CC2)cc(C)c1-c1cccc(COc2ccc(S(=O)(=O)CC(=O)O)cc2)c1	98%	7.10	Activity [3]: 26.3%; logD at 24 h, 100 µM [4]: 3.46
CCOc1cc(C)c(-c2cccc(COc3ccc(S(=O)(=O)CC(=O)O)cc3)c2)c(C)c1	107%	7.20	Activity [3]: 6.7%; logD at 24 h, 100 µM [4]: 2.86
Cc1ccc(-c2c(C)noc2C)cc1COc1ccc(S(=O)(=O)CC(=O)O)cc1	73%	6.37	–
CC(C)c1ccccc1-c1cccc(COc2ccc(S(=O)(=O)CC(=O)O)cc2)c1	101%	7.13	logD at 24 h, 100 µM [4]: 3.18
O=C(CS(=O)(=O)c1ccc(OCc2cccc(-c3ccccc3Cl)c2)cc1)NCCS(=O)(=O)O	–	–	Drug metabolism [5]: Metabolite_Detected
O=C(CS(=O)(=O)c1ccc(OCc2cccc(-c3ccccc3Cl)c2)cc1)O[C@@H]1O[C@H](CO)[C@@H](O)[C@H](O)[C@H]1O	–	–	Drug metabolism [5]: Metabolite_Detected
Cc1nc(-c2cccc(F)c2)sc1COc1ccc(S(=O)(=O)CC(=O)O)cc1	84%	6.56	–
Cc1noc(C)c1-c1cccc(COc2ccc(S(=O)(=O)CC(=O)O)cc2)c1C	77%	6.44	–
O=C(O)CS(=O)(=O)c1ccc(OCc2cccc(-c3ccccc3F)c2)cc1	97%	6.59	–
CO/N=C1\CC(CC(=O)O)c2ccc(OCc3cccc(-c4c(C)cc(OC)cc4C)c3)cc21 (configuration not stated)	–	< 6.00	–
Cc1nc(-c2ccc(F)cc2)sc1COc1ccc(S(=O)(=O)CC(=O)O)cc1	92%	6.72	–
COc1cc(C)c(-c2cccc(COc3ccc4c(c3)S(=O)(=O)CC4CC(=O)O)c2)c(C)c1 (configuration not stated)	–	< 6.00	–
COc1cc(C)c(-c2cccc(COc3ccc4c(c3)C(=O)CC4CC(=O)O)c2)c(C)c1 (configuration not stated)	87%	6.63	–
Cc1ccccc1-c1ccc(COc2cccc(S(=O)(=O)CC(=O)O)c2)cc1	–	< 6.00	–
Cc1cccc(-c2nc(C)c(COc3ccc(S(=O)(=O)CC(=O)O)cc3)s2)c1	82%	6.67	–
O=C(O)CS(=O)(=O)c1ccc(OCc2cccc(Oc3ccccc3)c2)cc1	101%	7.01	–
Cc1ccc(-c2cccc(COc3ccc(S(=O)(=O)CC(=O)O)cc3)c2)c(Cl)c1	112%	7.44	Activity [3]: 17.6%; logD at 24 h, 100 µM [4]: 3.05

— ChEMBL document CHEMBL4190257, “Discovery of phenylsulfonyl acetic acid derivatives with improved efficacy and safety as potent free fatty acid receptor 1 agonists for the treatment of type 2 diabetes” (Eur J Med Chem, 2017)
